The values below are quoted from earlier work in US20070232597A1, “Compounds, Compositions, and Methods” (priority 2003, published 2007).

This data set deals with A549 cells. Particulars: data provided by National Cancer Institute, Developmental Therapeutic Program.

Turning to `O=c1[nH]cc(F)c(=O)[nH]1` [5-fluorouracil], the GI50 was 1000 nM.

On to `NC(=O)NO` [hydroxyurea], for which the concentration for 50% growth inhibition (GI50) is 500000 nM.

For `CC(=O)O[C@H]1C(=O)[C@@]2(C)[C@H]([C@H](OC(=O)c3ccccc3)[C@]3(O)C[C@H](OC(=O)[C@H](O)[C@@H](NC(=O)c4ccccc4)c4ccccc4)C(C)=C1C3(C)C)[C@]1(OC(C)=O)CO[C@@H]1C[C@@H]2O` [paclitaxel], the GI50 was 4 nM.

`COc1cccc2c1C(=O)c1c(O)c3c(c(O)c1C2=O)C[C@@](O)(C(=O)CO)C[C@@H]3O[C@H]1C[C@H](N)[C@H](O)[C@H](C)O1` [doxorubicin]: the concentration for 50% growth inhibition (GI50) was 63 nM.
